According to patent US4061645A, “2-Trichloromethyl-5-methylsulfinyl-1,3,4-thiadiazole” (Schering Aktiengesellschaft, priority 1972, dated 1977):
Like-named read-outs stand apart in the source and are kept apart here.

Assays:
Rhizoctonia solani = experiment: Limit concentration of soil-fungicidal effectiveness, Rhizoctonia solani, infested soil seeded with peas (Example 1); format: in vivo; details: soil, 480 h, read-out: Limit concentration of the fungicidal effectiveness
Experimental: Limit concentrations of the soil-fungicidal effectiveness at homogeneous mixture of the products with the infested soil. Basic condition in the evaluation are a sound root formation without fungus necroses and germination of the seed of at least 90% compared with the result obtained in steamed soil. Per concentration there were seeded 25 grains of peas of the variety "Miracle of Kelvedon" (marrow pea) without a waiting period. The cultivation time in the tests was 20 to 23 days at a temperature of 22°-25° C. Four commercial products were included in the test series.
Rhizoctania solani: -- Steamed compost soil was inoculated with mycelium of Rhizoctonia solani.

Stemphylium ilicis = experiment: Agar test (Example 7), Stemphylium; format: cell-based; details: 10 ppm; 5 days at 22° C; control 100
Experimental: (§1) The fungicidal action of the agents according to the invention was tested in artificial nutrient media against plant-pathogenic fungi in Petri dishes (agar test). The procedure was to sterilize the medium consisting of 2% malt extract and 1.5% agar-agar powder. Before the solidification of the medium, the active substances were added to it, mixing thoroughly, so that the medium received 10 parts of active substance per million (ppm). After the solidification of the medium, the latter was inoculated with a platinum dropper which contained 100 spores each of the fungi to be tested, and after five days at 22° C, an evaluation was made by measuring the diameter of the colonies in mm.

Asperqilus niger = experiment: Agar test (Example 7), Aspergillus; format: cell-based; details: 10 ppm; 5 days at 22° C; control 100
Experimental: as §1

[1] = test system: Colletotrichum gloeosporioides; experiment: Agar test (Example 7), Colletotrichum; format: cell-based; details: 10 ppm; 5 days at 22° C; control 100
Experimental: as §1

Helminthosporium sativum = experiment: Agar test (Example 7), Helminthosporium; format: cell-based; details: 10 ppm; 5 days at 22° C; control 100
Experimental: as §1

Botrytis cinerea = experiment: Agar test (Example 7), Botrytis; format: cell-based; details: 10 ppm; 5 days at 22° C; control 100
Experimental: as §1

Pythium ultimum = Pythium ultimum infested compost soil, marrow peas (Example 2); format: in vivo; details: for Weight of fresh plant: 3 weeks; for Number of sound peas after 3 wks.: of 25 grains
Text: Steamed compost soil was inoculated with mycelium of Pythium ultimum.

[2] = test system: Fusarium oxysporum f. callistephi; experiment: Fusarium infested compost soil, Callistephus chinesis seedlings (Example 5); format: in vivo; details: of 4 seedlings
Text: Steamed compost soil was inoculated with a spore suspension of Fusarium oxysporum f. callistephi. After homogeneous mixture of the products with the infested soil, the products were present as 20% powder preparations, and after a waiting period of 8 days, there were set out per concentration 4 seedlings of Callistephus chinesis, master aster "Sun Ray" as host plants.

[3] = 10 mg active ingr. per liter of soil
[4] = 20 mg active ingr. per liter of soil
[5] = 30 mg active ingr. per liter of soil
[6] = 200 mg active ingr. per liter of soil

C[S+]([O-])c1nnc(CCl)s1 (stereo not shown) [Compound 2, 2-chloromethyl-5-methylsulfinyl-1,3,4-thiadiazole]
minimal effective concentration (Rhizoctonia solani; 20 to 23 days, 22°-25° C): 50 µg/mL

CC(C)[S+]([O-])c1nnc(C(Cl)Cl)s1 (stereo not shown) [Compound 6, 2-dichloromethyl-5-isopropylsulfinyl-1,3,4-thiadiazole]
minimal effective concentration (Rhizoctonia solani; 20 to 23 days, 22°-25° C): 50 µg/mL

CCCCC[S+]([O-])c1nnc(C(Cl)Cl)s1 (stereo not shown) [Compound 7, 2-dichloromethyl-5-amylsulfinyl-1,3,4-thiadiazole]
diameter of the colonies (Stemphylium ilicis): 0 mm
minimal effective concentration (Rhizoctonia solani; 20 to 23 days, 22°-25° C): 50 µg/mL
diameter of the colonies (Asperqilus niger): 0 mm
diameter of the colonies [1]: 0 mm
diameter of the colonies (Helminthosporium sativum): 0 mm
diameter of the colonies (Botrytis cinerea): 22 mm

CCC[S+]([O-])c1nnc(C(Cl)(Cl)Cl)s1 (stereo not shown) [Compound 10, 2-trichloromethyl-5-propylsulfinyl-1,3,4-thiadiazole]
diameter of the colonies (Stemphylium ilicis): 0 mm
minimal effective concentration (Rhizoctonia solani; 20 to 23 days, 22°-25° C): 20 µg/mL
diameter of the colonies (Asperqilus niger): 0 mm
diameter of the colonies [1]: 0 mm
diameter of the colonies (Helminthosporium sativum): 0 mm
diameter of the colonies (Botrytis cinerea): 0 mm

CC(C)[S+]([O-])c1nnc(C(Cl)(Cl)Cl)s1 (stereo not shown) [Compound 11, 2-trichloromethyl-5-isopropylsulfinyl-1,3,4-thiadiazole]
minimal effective concentration (Rhizoctonia solani; 20 to 23 days, 22°-25° C): 50 µg/mL

CCCC[S+]([O-])c1nnc(C(Cl)(Cl)Cl)s1 (stereo not shown) [Compound 12, 2-trichloromethyl-5-butylsulfinyl-1,3,4-thiadiazole]
diameter of the colonies (Stemphylium ilicis): 0 mm
minimal effective concentration (Rhizoctonia solani; 20 to 23 days, 22°-25° C): 50 µg/mL
diameter of the colonies (Asperqilus niger): 0 mm
diameter of the colonies [1]: 0 mm
diameter of the colonies (Helminthosporium sativum): 0 mm
diameter of the colonies (Botrytis cinerea): 0 mm

CCCCCCC[S+]([O-])c1nnc(C(Cl)(Cl)Cl)s1 (stereo not shown) [Compound 13, 2-trichloromethyl-5-heptylsulfinyl-1,3,4-thiadiazole]
diameter of the colonies (Stemphylium ilicis): 0 mm
minimal effective concentration (Rhizoctonia solani; 20 to 23 days, 22°-25° C): 200 µg/mL
diameter of the colonies (Asperqilus niger): 0 mm
diameter of the colonies [1]: 0 mm
diameter of the colonies (Helminthosporium sativum): 0 mm
diameter of the colonies (Botrytis cinerea): 13 mm

CCCCCCCC[S+]([O-])c1nnc(C(Cl)(Cl)Cl)s1 (stereo not shown) [Compound 14, 2-trichloromethyl-5-octylsulfinyl-1,3,4-thiadiazole]
minimal effective concentration (Rhizoctonia solani; 20 to 23 days, 22°-25° C): 100 µg/mL

CS(=O)(=O)c1nnc(CCl)s1 [Compound 15, 2-chloromethyl-5-methylsulfonyl-1,3,4-thiadiazole]
minimal effective concentration (Rhizoctonia solani; 20 to 23 days, 22°-25° C): 100 µg/mL
Weight of fresh plant (Pythium ultimum; [3]): 20 g
Number of sound peas after 3 wks. (Pythium ultimum; [3]): 22
Weight of fresh plant (Pythium ultimum; [4]): 20 g
Number of sound peas after 3 wks. (Pythium ultimum; [4]): 23
Weight of fresh plant (Pythium ultimum; [5]): 20 g
Number of sound peas after 3 wks. (Pythium ultimum; [5]): 24

CC(C)S(=O)(=O)c1nnc(CCl)s1 [Compound 16, 2-chloromethyl-5-isopropylsulfonyl-1,3,4-thiadiazole]
minimal effective concentration (Rhizoctonia solani; 20 to 23 days, 22°-25° C): 200 µg/mL

CC(C)S(=O)(=O)c1nnc(C(Cl)Cl)s1 [Compound 20, 2-dichloromethyl-5-isopropylsulfonyl-1,3,4-thiadiazole]
minimal effective concentration (Rhizoctonia solani; 20 to 23 days, 22°-25° C): 50 µg/mL

CC(C)S(=O)(=O)c1nnc(C(Cl)(Cl)Cl)s1 [Compound 24, 2-trichloromethyl-5-isopropylsulfonyl-1,3,4-thiadiazole]
diameter of the colonies (Stemphylium ilicis): 0 mm
minimal effective concentration (Rhizoctonia solani; 20 to 23 days, 22°-25° C): 30 µg/mL
diameter of the colonies (Asperqilus niger): 0 mm
diameter of the colonies [1]: 0 mm
diameter of the colonies (Helminthosporium sativum): 0 mm
diameter of the colonies (Botrytis cinerea): 0 mm

CCCCCS(=O)(=O)c1nnc(C(Cl)(Cl)Cl)s1 [Compound 26, 2-trichloromethyl-5-amylsulfonyl-1,3,4-thiadiazole]
diameter of the colonies (Stemphylium ilicis): 0 mm
minimal effective concentration (Rhizoctonia solani; 20 to 23 days, 22°-25° C): 25 µg/mL
diameter of the colonies (Asperqilus niger): 0 mm
diameter of the colonies [1]: 0 mm
diameter of the colonies (Helminthosporium sativum): 0 mm
diameter of the colonies (Botrytis cinerea): 0 mm

CS(=O)(=O)c1nnc(CBr)s1 [Compound 30, 2-bromomethyl-5-methylsulfonyl-1,3,4-thiadiazole]
minimal effective concentration (Rhizoctonia solani; 20 to 23 days, 22°-25° C): 150 µg/mL
Weight of fresh plant (Pythium ultimum; [3]): 18 g
Number of sound peas after 3 wks. (Pythium ultimum; [3]): 21
Weight of fresh plant (Pythium ultimum; [4]): 24 g
Number of sound peas after 3 wks. (Pythium ultimum; [4]): 24
Weight of fresh plant (Pythium ultimum; [5]): 18 g
Number of sound peas after 3 wks. (Pythium ultimum; [5]): 22

CCS(=O)(=O)c1nnc(CBr)s1 [Compound 31, 2-bromomethyl-5-ethylsulfonyl-1,3,4-thiadiazole]
minimal effective concentration (Rhizoctonia solani; 20 to 23 days, 22°-25° C): > 200 µg/mL

C[S+]([O-])c1nnc(CF)s1 (stereo not shown) [Compound 33, 2-fluoromethyl-5-methylsulfinyl-1,3,4-thiadiazole]
minimal effective concentration (Rhizoctonia solani; 20 to 23 days, 22°-25° C): 20 µg/mL

CS(=O)(=O)c1nnc(CF)s1 [Compound 34, 2-fluoromethyl-5-methylsulfonyl-1,3,4-thiadiazole]
minimal effective concentration (Rhizoctonia solani; 20 to 23 days, 22°-25° C): 30 µg/mL

C[S+]([O-])c1nnc(C(F)(F)F)s1 (stereo not shown) [Compound 35, 2-trifluoromethyl-5-methylsulfinyl-1,3,4-thiadiazole]
minimal effective concentration (Rhizoctonia solani; 20 to 23 days, 22°-25° C): 20 µg/mL

CC[S+]([O-])c1nnc(C(F)(F)F)s1 (stereo not shown) [Compound 36, 2-trifluoromethyl-5-ethylsulfinyl-1,3,4-thiadiazole]
minimal effective concentration (Rhizoctonia solani; 20 to 23 days, 22°-25° C): 20 µg/mL

CC(C)C[S+]([O-])c1nnc(C(F)(F)F)s1 (stereo not shown) [Compound 37, 2-trifluoromethyl-5-isobutylsulfinyl-1,3,4-thiadiazole]
minimal effective concentration (Rhizoctonia solani; 20 to 23 days, 22°-25° C): 100 µg/mL

CCCCC[S+]([O-])c1nnc(C(F)(F)F)s1 (stereo not shown) [Compound 38, 2-trifluoromethyl-5-pentylsulfinyl-1,3,4-thiadiazole]
minimal effective concentration (Rhizoctonia solani; 20 to 23 days, 22°-25° C): 40 µg/mL

CCCCCC[S+]([O-])c1nnc(C(F)(F)F)s1 (stereo not shown) [Compound 39, 2-trifluoromethyl-5-hexylsulfinyl-1,3,4-thiadiazole]
minimal effective concentration (Rhizoctonia solani; 20 to 23 days, 22°-25° C): 40 µg/mL

CCS(=O)(=O)c1nnc(C(F)(F)F)s1 [Compound 40, 2-trifluoromethyl-5-ethylsulfonyl-1,3,4-thiadiazole]
minimal effective concentration (Rhizoctonia solani; 20 to 23 days, 22°-25° C): 20 µg/mL

CC(C)S(=O)(=O)c1nnc(C(F)(F)F)s1 [Compound 41, 2-trifluoromethyl-5-isopropylsulfonyl-1,3,4-thiadiazole]
minimal effective concentration (Rhizoctonia solani; 20 to 23 days, 22°-25° C): 20 µg/mL

CC(C)CS(=O)(=O)c1nnc(C(F)(F)F)s1 [Compound 42, 2-trifluoromethyl-5-isobutylsulfonyl-1,3,4-thiadiazole]
minimal effective concentration (Rhizoctonia solani; 20 to 23 days, 22°-25° C): 100 µg/mL

CCCCCCS(=O)(=O)c1nnc(C(F)(F)F)s1 [Compound 43, 2-trifluoromethyl-5-hexylsulfonyl-1,3,4-thiadiazole]
minimal effective concentration (Rhizoctonia solani; 20 to 23 days, 22°-25° C): 50 µg/mL

CCCCCCCS(=O)(=O)c1nnc(C(F)(F)F)s1 [Compound 44, 2-trifluoromethyl-5-heptylsulfonyl-1,3,4-thiadiazole]
minimal effective concentration (Rhizoctonia solani; 20 to 23 days, 22°-25° C): 50 µg/mL

CS(=O)(=O)c1nnc(C(F)(F)C(F)(F)F)s1 [Compound 45, 2-pentafluoroethyl-5-methylsulfonyl-1,3,4-thiadiazole]
minimal effective concentration (Rhizoctonia solani; 20 to 23 days, 22°-25° C): > 100 µg/mL

CS(=O)(=O)c1nnc(C(F)(F)C(F)(F)C(F)(F)F)s1 [Compound 46, 2-heptafluoropropyl-5-methylsulfonyl-1,3,4-thiadiazole]
minimal effective concentration (Rhizoctonia solani): 100 µg/mL

CC(Cl)(Cl)c1nnc(S(C)(=O)=O)s1 [Compound 47, 2-(1,1-dichloroethyl)-5-methylsulfonyl-1,3,4-thiadiazole]
minimal effective concentration (Rhizoctonia solani; 20 to 23 days, 22°-25° C): 50 µg/mL

CCC(Cl)c1nnc([S+](C)[O-])s1 (stereo not shown) [Compound 48, 2-(1-chloropropyl)-5-methylsulfinyl-1,3,4-thiadiazole]
minimal effective concentration (Rhizoctonia solani; 20 to 23 days, 22°-25° C): 100 µg/mL

CCC(Cl)c1nnc(S(C)(=O)=O)s1 (stereo not shown) [Compound 49, 2-(1-chloropropyl)-5-methylsulfonyl-1,3,4-thiadiazole]
minimal effective concentration (Rhizoctonia solani; 20 to 23 days, 22°-25° C): 50 µg/mL

CC(Br)c1nnc(S(C)(=O)=O)s1 (stereo not shown) [Compound 50, 2-(1-bromoethyl)-5-methylsulfonyl-1,3,4-thiadiazole]
minimal effective concentration (Rhizoctonia solani; 20 to 23 days, 22°-25° C): 100 µg/mL

CC(C)C(Br)c1nnc(S(C)(=O)=O)s1 (stereo not shown) [Compound 51, 2-(1-bromisobutyl)-5-methylsulfonyl-1,3,4-thiadiazole]
minimal effective concentration (Rhizoctonia solani; 20 to 23 days, 22°-25° C): 50 µg/mL

O=C1C2CC=CCC2C(=O)N1SC(Cl)(Cl)Cl (stereo not shown) [N-(trichloromethylthio)-cyclohex-4-ene-1,2-dicarboximide, reference compound]
minimal effective concentration (Rhizoctonia solani): 300 µg/mL
Weight of fresh plant (Pythium ultimum; [6]): 6 g
Number of sound peas after 3 wks. (Pythium ultimum; [6]): 13
Number of attacked plants after 3 weeks ([2]; 50 mg active ingredient per liter of soil): 4
Number of attacked plants after 3 weeks ([2]; 100 mg active ingredient per liter of soil): 4
Number of attacked plants after 3 weeks ([2]; 200 mg active ingredient per liter of soil): 4
